The source made the active and inactive calls.
Assays:
[1] = target: T1, Microphthalmia-associated transcription factor (Homo sapiens, UniProt O75030); assay: TRPM1 promoter luciferase signal decrease, dose response, MITF inhibitor project, cell-based, SK-MEL-5, cherry-picked, set 3 (AID 493073); assay type: functional
T1 sequence (O75030 whole entry): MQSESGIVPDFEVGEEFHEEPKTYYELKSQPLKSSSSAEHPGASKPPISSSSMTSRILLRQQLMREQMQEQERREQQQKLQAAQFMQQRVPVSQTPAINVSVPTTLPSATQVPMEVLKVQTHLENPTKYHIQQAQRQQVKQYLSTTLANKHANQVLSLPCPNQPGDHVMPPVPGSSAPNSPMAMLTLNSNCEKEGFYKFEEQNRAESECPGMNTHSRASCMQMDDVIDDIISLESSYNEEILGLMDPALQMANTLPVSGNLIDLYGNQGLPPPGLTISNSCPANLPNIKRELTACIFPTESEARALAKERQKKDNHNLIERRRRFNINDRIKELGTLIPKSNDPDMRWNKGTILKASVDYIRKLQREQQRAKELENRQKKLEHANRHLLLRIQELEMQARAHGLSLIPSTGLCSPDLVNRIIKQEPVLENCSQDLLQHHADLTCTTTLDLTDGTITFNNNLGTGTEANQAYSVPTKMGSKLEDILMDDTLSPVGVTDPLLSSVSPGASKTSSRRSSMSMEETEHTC

[2] = HepG2 cell cytotoxicity, dose response, cytotoxicity control for non-replicating M. tuberculosis project (AID 489018); assay type: functional; conditions: Mycobacterium tuberculosis
[3] = target: T2, High affinity choline transporter 1 (Homo sapiens, UniProt Q9GZV3); assay: CHT inhibitors, dose response, cell-based, 5-point CRC, membrane potential dye (AID 504840); assay type: functional
T2 sequence (Q9GZV3 whole entry): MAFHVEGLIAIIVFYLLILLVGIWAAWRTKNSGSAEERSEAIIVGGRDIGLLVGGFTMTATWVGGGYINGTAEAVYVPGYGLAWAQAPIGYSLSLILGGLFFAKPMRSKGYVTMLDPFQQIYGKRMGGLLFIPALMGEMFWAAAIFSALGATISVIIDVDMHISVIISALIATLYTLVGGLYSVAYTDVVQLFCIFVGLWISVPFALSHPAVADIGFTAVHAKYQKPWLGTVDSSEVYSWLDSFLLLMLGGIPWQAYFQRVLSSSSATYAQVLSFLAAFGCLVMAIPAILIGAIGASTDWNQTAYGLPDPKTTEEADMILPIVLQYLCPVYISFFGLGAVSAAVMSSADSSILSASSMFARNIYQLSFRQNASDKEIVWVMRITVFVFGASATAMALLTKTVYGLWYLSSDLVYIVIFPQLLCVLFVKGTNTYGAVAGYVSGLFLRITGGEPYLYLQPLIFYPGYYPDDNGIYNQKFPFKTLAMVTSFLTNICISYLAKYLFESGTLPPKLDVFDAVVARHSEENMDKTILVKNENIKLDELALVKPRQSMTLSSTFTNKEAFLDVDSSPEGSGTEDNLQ

[4] = cytotoxicity in HEK-293T cells, dose response, cytotoxicity control for BCR NF-kB inhibitor project, luminescence, B-cell screen hits (AID 489021); assay type: functional, cell-based;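 further: HEK-293T cells carrying an NF-kB luciferase reporter; cells exposed to compound for about 14 hours before viability readout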
[5] = target: Luciferin 4-monooxygenase (Photinus pyralis, UniProt P08659); assay: firefly luciferase enzyme inhibitors, dose response, biochemical, luminescence (AID 1891)
Chain of Luciferin 4-monooxygenase (P08659 whole entry): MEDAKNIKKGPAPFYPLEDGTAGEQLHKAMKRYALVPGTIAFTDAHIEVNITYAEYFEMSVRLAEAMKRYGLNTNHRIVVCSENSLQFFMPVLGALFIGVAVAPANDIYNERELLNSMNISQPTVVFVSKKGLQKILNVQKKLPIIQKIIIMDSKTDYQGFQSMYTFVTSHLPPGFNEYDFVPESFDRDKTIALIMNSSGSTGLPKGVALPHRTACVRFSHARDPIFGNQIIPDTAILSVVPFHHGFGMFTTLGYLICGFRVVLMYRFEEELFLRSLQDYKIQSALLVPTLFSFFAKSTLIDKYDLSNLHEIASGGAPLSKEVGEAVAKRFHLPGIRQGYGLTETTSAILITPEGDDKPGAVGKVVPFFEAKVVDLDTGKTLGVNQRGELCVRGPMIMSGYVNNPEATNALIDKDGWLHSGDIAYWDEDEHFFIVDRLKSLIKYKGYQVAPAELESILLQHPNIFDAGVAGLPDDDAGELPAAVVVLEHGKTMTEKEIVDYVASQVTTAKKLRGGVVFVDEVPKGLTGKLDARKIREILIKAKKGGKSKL

[6] = Luminescence Cell-Based Dose Confirmation HTS to Identify Inhibitors of Platelet Dense Granule Release. [Related pubchem assays: 1663 (Primary HTS), 1678 (Summary of Project)]; assay type: functional
[7] = Luminescence Cell-Based Dose Response HTS to Identify Inhibitors of 5'UTR Stem-Loop Driven Prion Protein mRNA Translation in H4 Neuroglioblastoma Cells. [Related pubchem assays: 1827 (Project Summary), 1813 (Primary HTS)]; assay type: functional
[8] = inhibitors of firefly luciferase expression or activity, dose response, H4 neuroglioma cells, luminescence (AID 1990); assay type: functional, cell-based
[9] = target: T3, Calpain-2 catalytic subunit (Sus scrofa, UniProt P43367); assay: pig calpain II inhibitor potency, dose response, biochemical, fluorogenic peptide substrate (AID 1420); assay type: functional
T3 sequence (P43367 whole entry): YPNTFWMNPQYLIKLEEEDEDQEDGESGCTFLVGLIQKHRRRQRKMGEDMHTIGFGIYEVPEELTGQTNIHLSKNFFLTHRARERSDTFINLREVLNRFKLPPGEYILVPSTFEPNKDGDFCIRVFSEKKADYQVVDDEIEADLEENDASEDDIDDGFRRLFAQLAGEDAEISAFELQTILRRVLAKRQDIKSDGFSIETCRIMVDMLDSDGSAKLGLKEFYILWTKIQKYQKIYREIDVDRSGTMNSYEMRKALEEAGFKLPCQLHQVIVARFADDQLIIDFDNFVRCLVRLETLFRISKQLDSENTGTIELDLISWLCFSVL

[10] = inhibitors of SNCA 5'UTR-driven reporter translation, confirmation, H4 neuroglioma cells, luminescence (AID 1988); assay type: functional, cell-based
[11] = cells; assay type: functional
[12] = THP-1 cell cytotoxicity, dose response, cytotoxicity control for non-replicating M. tuberculosis project (AID 489025); assay type: functional

## COc1cc2nc(SCC(=O)NCc3ccco3)n(Cc3ccc(Cl)cc3)c(=O)c2cc1OC
[1]
  AC50: 13.2 µM (active)

## Nc1cccn2c(-c3ccc(Cl)cc3)cnc12
[2]
  CC50: 19.1 µM (active)

## O=S(=O)(c1ccc(N2CCCC2)nc1)N1CCCC1
[3]
  IC50: 8.93 µM (active)

## Cc1nn(-c2ccccc2)c(C)c1C(=O)OCC(=O)NC(=O)NC1CCCC1
[3]
  IC50: 14.5 µM (active)

## Cc1ccc(NC(S)=NNC(=O)C2CC2c2ccc(C)cc2)cc1 (stereo not drawn)
[3]
  IC50: 13.2 µM (active)

## COC(=O)/C(=C/c1c[nH]c2ccccc12)[N+](=O)[O-]
[3]
  IC50: 0.724 µM (active)

## CCN1C(=O)Nc2cccc3cccc1c23
[4]
  IC50: > 80 µM (inactive)
[5]
  EC50: > 112 µM (not active)
[6]
  EC50: 7.12 µM (active)

## O=C(CCCN1C(=O)/C(=C/c2ccccc2Cl)SC1=S)NNC(=O)c1ccc(Cl)cc1Cl
[4]
  IC50: > 80 µM (inactive)
[7]
  EC50: 7.86 µM (active)
[8]
  EC50: 0.675 µM (active)
[9]
  IC50: > 50 µM (not active)
[5]
  EC50: > 112 µM (not active)
[6]
  EC50: > 112 µM (not active)
[10]
  EC50: 1.03 µM (active)

## O=C(NC(=S)NCc1ccccc1)c1ccccc1
[1]
  AC50: 22.1 µM (active)

## Cc1c(CCC(=O)N2CCC[C@H]2C(=O)O)c(=O)oc2cc3oc4c(c3cc12)CCCC4
[4]
  IC50: > 80 µM (inactive)
[8]
  EC50: 8.13 µM (active)
[10]
  EC50: 10.2 µM (active)

## CN(C)CCCn1c(=O)n(C2CCCCC2)c(=O)c2c3c(sc21)CCCCC3
[11]
  IC50: 24.9 µM (active)
[12]
  CC50: 23.8 µM (active)
[3]
  IC50: 8.71 µM (active)

Source: ChEMBL document CHEMBL1201862, “PubChem BioAssay data set” (2004)
